Assay results reported in BindingDB's records for doi:10.1016/s0960-894x(02)01027-2 (Glaxosmithkline, 2003).

The compounds below were run against Methionine--tRNA ligase (Staphylococcus aureus) (assay: Compound tested for inhibition of Staphylococcus aureus MRS (methionyl tRNA synthetase) in aminoacylation assay).

| Compound | IC50 [nM] |
| --- | --- |
| Oc1cc(NCCCNC2COc3c(Cl)cc(Cl)cc32)nc2ccccc12 (stereo not given) [2-[3-(5,7-Dichloro-2,3-dihydro-benzofuran-3-ylamino)-propylamino]-1H-quinolin-4-one] | 6 |
| CCOc1c(C)cc(C#N)cc1CNCCCNc1cc(O)c2ccccc2n1 [4-Ethoxy-3-methyl-5-{[3-(4-oxo-1,4-dihydro-quinolin-2-ylamino)-propylamino]-methyl}-benzonitrile] | 3.9 |
| CCOc1c(CNCCCNc2cc(O)c3ccccc3n2)cc(Br)cc1OC [TCMDC-139833] | 13 |
| CCOc1c(I)cc(CO)cc1CNCCCNc1cc(O)c2ccccc2n1 [2-[3-(2-Ethoxy-5-hydroxymethyl-3-iodo-benzylamino)-propylamino]-1H-quinolin-4-one] | 14 |
| Cc1cc(Br)cc2c1NCCC2NCCCNc1cc(O)c2ccccc2n1 (stereo not given) [2-[3-(6-Bromo-8-methyl-1,2,3,4-tetrahydro-quinolin-4-ylamino)-propylamino]-1H-quinolin-4-one] | 9.4 |
| CCOc1c(C)cc(C(F)(F)F)cc1CNCCCNc1cc(O)c2ccccc2n1 [2-[3-(2-Ethoxy-3-methyl-5-trifluoromethyl-benzylamino)-propylamino]-1H-quinolin-4-one] | 6.8 |
| CCOC(=O)c1cc(I)cc(CNCCCNc2cc(O)c3ccccc3n2)c1OCC [2-Ethoxy-5-iodo-3-{[3-(4-oxo-1,4-dihydro-quinolin-2-ylamino)-propylamino]-methyl}-benzoic acid ethyl ester] | 21 |
| Oc1cc(NCCCNC2CCNc3c(Br)cc(Br)cc32)nc2ccccc12 (stereo not given) [2-[3-(6,8-Dibromo-1,2,3,4-tetrahydro-quinolin-4-ylamino)-propylamino]-1H-quinolin-4-one] | 8 |
| Oc1cc(NCCCNC2CCNc3c(Br)cc(Cl)cc32)nc2ccccc12 (stereo not given) | < 3 |
| CCOc1c(CNCCCNc2cc(O)c3ccccc3n2)cc(I)cc1COC [2-[3-(2-Ethoxy-5-iodo-3-methoxymethyl-benzylamino)-propylamino]-1H-quinolin-4-one] | 9.4 |
| Oc1cc(NCCCNC2CCNc3c(Cl)cc(Cl)cc32)nc2ccccc12 (stereo not given) [2-[3-(6,8-Dichloro-1,2,3,4-tetrahydro-quinolin-4-ylamino)-propylamino]-1H-quinolin-4-one] | 23 |
| CCOC(=O)c1cc(I)c(OCC)c(CNCCCNc2cc(O)c3ccccc3n2)c1 [4-Ethoxy-3-iodo-5-{[3-(4-oxo-1,4-dihydro-quinolin-2-ylamino)-propylamino]-methyl}-benzoic acid ethyl ester] | 170 |
| CCOc1c(I)cc(OC)cc1CNCCCNc1cc(O)c2ccccc2n1 [2-[3-(2-Ethoxy-3-iodo-5-methoxy-benzylamino)-propylamino]-1H-quinolin-4-one] | 3.3 |
| Oc1cc(NCCCNC2CCOc3c(I)cc(Cl)cc32)nc2ccccc12 (stereo not given) [2-[3-(6-Chloro-8-iodo-chroman-4-ylamino)-propylamino]-1H-quinolin-4-one] | 9.4 |
| CCc1cc(I)c2c(c1)C(NCCCNc1cc(O)c3ccccc3n1)CCN2 (stereo not given) [2-[3-(6-Ethyl-8-iodo-1,2,3,4-tetrahydro-quinolin-4-ylamino)-propylamino]-1H-quinolin-4-one] | 12 |
| CCOc1c(CO)cc(I)cc1CNCCCNc1cc(O)c2ccccc2n1 [2-[3-(2-Ethoxy-3-hydroxymethyl-5-iodo-benzylamino)-propylamino]-1H-quinolin-4-one] | 4.1 |
| CCOc1c(I)cc(C)cc1CNCCCNc1cc(O)c2ccccc2n1 [2-[3-(2-Ethoxy-3-iodo-5-methyl-benzylamino)-propylamino]-1H-quinolin-4-one] | 7.2 |

| Compound | IC50 [nM] |
| --- | --- |
| Oc1cc(NCCCNC2CCOc3c(Cl)cc(I)cc32)nc2ccccc12 (stereo not given) [2-[3-(8-Chloro-6-iodo-chroman-4-ylamino)-propylamino]-1H-quinolin-4-one] | 12 |
| Oc1cc(NCCCNC2CCc3c(Cl)cc(Cl)cc32)nc2ccccc12 (stereo not given) [2-[3-(4,6-Dichloro-indan-1-ylamino)-propylamino]-1H-quinolin-4-one] | 5.1 |
| CCOc1c(CNCCCNc2cc(O)c3ccccc3n2)cc(I)cc1OC [TCMDC-139847] | 12 |
| Oc1cc(NCCCNC2CCNc3c(Cl)cc(Br)cc32)nc2ccccc12 (stereo not given) | < 3 |
| Oc1cc(NCCCNCc2ccc(Cl)c(Cl)c2)nc2ccccc12 [2-[3-(3,4-Dichloro-benzylamino)-propylamino]-1H-quinolin-4-one] | 16 |
| Oc1cc(NCCCNC2CCOc3c(Br)cc(Br)cc32)nc2ccccc12 (stereo not given) [2-(3-(6,8-dibromo-3,4-dihydro-2H-chromen-4-ylamino)propylamino)quinolin-4(1H)-one] | 7.8 |
| CCOc1c(I)cc(COC)cc1CNCCCNc1cc(O)c2ccccc2n1 [2-[3-(2-Ethoxy-3-iodo-5-methoxymethyl-benzylamino)-propylamino]-1H-quinolin-4-one] | 17 |
| O=c1cc(NCCCNC2CCOc3c(Cl)cc(Cl)cc32)[nH]c2ccccc12 (stereo not given) | < 3 |
| CCOc1c(C)cc(I)cc1CNCCCNc1cc(O)c2ccccc2n1 [2-[3-(2-Ethoxy-5-iodo-3-methyl-benzylamino)-propylamino]-1H-quinolin-4-one] | 3.2 |
| C=CCc1cc(I)cc(CNCCCNc2cc(O)c3ccccc3n2)c1OCC | < 3 |
| Oc1cc(NCCCNC2CCCc3c(Cl)cc(Cl)cc32)nc2ccccc12 (stereo not given) [2-[3-(5,7-Dichloro-1,2,3,4-tetrahydro-naphthalen-1-ylamino)-propylamino]-1H-quinolin-4-one] | 3.8 |
| CCOc1c(Br)cc([S+](C)[O-])cc1CNCCCNc1cc(O)c2ccccc2n1 (stereo not given) [2-[3-(3-Bromo-2-ethoxy-5-methanesulfinyl-benzylamino)-propylamino]-1H-quinolin-4-one] | 23 |
| CCOc1c(C#N)cc(Br)cc1CNCCCNc1cc(O)c2ccccc2n1 [5-Bromo-2-ethoxy-3-{[3-(4-oxo-1,4-dihydro-quinolin-2-ylamino)-propylamino]-methyl}-benzonitrile] | 4 |
| CCOc1c(C)cc(SC)cc1CNCCCNc1cc(O)c2ccccc2n1 [2-[3-(2-Ethoxy-3-methyl-5-methylsulfanyl-benzylamino)-propylamino]-1H-quinolin-4-one] | 5.1 |
| CCOc1c(CNCCCNc2cc(O)c3ccccc3n2)cc(I)cc1C(C)(C)C [2-[3-(3-tert-Butyl-2-ethoxy-5-iodo-benzylamino)-propylamino]-1H-quinolin-4-one] | 120 |
| CCc1cc(Br)cc2c1NCCC2NCCCNc1cc(O)c2ccccc2n1 (stereo not given) [2-[3-(6-Bromo-8-ethyl-1,2,3,4-tetrahydro-quinolin-4-ylamino)-propylamino]-1H-quinolin-4-one] | 4.3 |

Each compound was assayed against Methionine--tRNA ligase (Staphylococcus aureus) (assay: Compound tested for inhibition of Staphylococcus aureus MRS(methionyl tRNA synthetase) in aminoacylation assay).

| Compound | IC50 [nM] |
| --- | --- |
| CCOc1c(Br)cc(SC)cc1CNCCCNc1cc(O)c2ccccc2n1 [2-[3-(3-Bromo-2-ethoxy-5-methylsulfanyl-benzylamino)-propylamino]-1H-quinolin-4-one] | 4.7 |
| CCOc1cc(Br)c(OCC)c(CNCCCNc2cc(O)c3ccccc3n2)c1 [2-[3-(3-Bromo-2,5-diethoxy-benzylamino)-propylamino]-1H-quinolin-4-one] | 61 |
| Oc1cc(NCCCSCc2ccc(Cl)c(Cl)c2)nc2ccccc12 [2-[3-(3,4-Dichloro-benzylsulfanyl)-propylamino]-1H-quinolin-4-one] | 170 |
| Oc1cc(NCCCNCc2cc(Br)cc(Br)c2OCC(F)(F)F)nc2ccccc12 [2-{3-[3,5-Dibromo-2-(2,2,2-trifluoro-ethoxy)-benzylamino]-propylamino}-1H-quinolin-4-one] | 11 |
| Oc1cc(NCCCNCc2cc(Cl)ccc2Cl)nc2ccccc12 [2-[3-(2,5-Dichloro-benzylamino)-propylamino]-1H-quinolin-4-one] | 9 |
| CCOc1c(Br)cc(OC)cc1CNCCCNc1cc(O)c2ccccc2n1 [2-[3-(3-Bromo-2-ethoxy-5-methoxy-benzylamino)-propylamino]-1H-quinolin-4-one] | 3.1 |
| Oc1cc(NCCCNCc2cc(Cl)cc(Cl)c2)nc2ccccc12 [2-[3-(3,5-Dichloro-benzylamino)-propylamino]-1H-quinolin-4-one] | 3 |
| CCOc1c(Br)cc(C#N)cc1CNCCCNc1cc(O)c2ccccc2n1 [3-Bromo-4-ethoxy-5-{[3-(4-oxo-1,4-dihydro-quinolin-2-ylamino)-propylamino]-methyl}-benzonitrile] | 4.6 |
| CCOc1c(Br)cc(I)cc1CNCCCNc1cc(O)c2ccccc2n1 [2-[3-(3-Bromo-2-ethoxy-5-iodo-benzylamino)-propylamino]-1H-quinolin-4-one] | 8.8 |
| C=CCOc1c(Cl)cc(Cl)cc1CNCCCNc1cc(O)c2ccccc2n1 [2-[3-(2-Allyloxy-3,5-dichloro-benzylamino)-propylamino]-1H-quinolin-4-one] | 7.2 |
| O=C(NCCCNc1cc(O)c2ccccc2n1)c1ccc(Cl)c(Cl)c1 [3,4-Dichloro-N-[3-(4-oxo-1,4-dihydro-quinolin-2-ylamino)-propyl]-benzamide] | 140 |
| CCNc1c(Br)cc(Br)cc1CNCCCNc1cc(O)c2ccccc2n1 [2-[3-(3,5-Dibromo-2-ethylamino-benzylamino)-propylamino]-1H-quinolin-4-one] | 18 |
| CCOc1c(Br)cc(C)cc1CNCCCNc1cc(O)c2ccccc2n1 [2-[3-(3-Bromo-2-ethoxy-5-methyl-benzylamino)-propylamino]-1H-quinolin-4-one] | 4.9 |
| Nc1c(Br)cc(Br)cc1CNCCCNc1cc(O)c2ccccc2n1 [2-[3-(2-Amino-3,5-dibromo-benzylamino)-propylamino]-1H-quinolin-4-one] | 9.1 |
| CC(C)Oc1c(Cl)cc(Cl)cc1CNCCCNc1cc(O)c2ccccc2n1 [2-[3-(3,5-Dichloro-2-isopropoxy-benzylamino)-propylamino]-1H-quinolin-4-one] | 29 |
| CNc1c(Br)cc(Br)cc1CNCCCNc1cc(O)c2ccccc2n1 [2-[3-(3,5-Dibromo-2-methylamino-benzylamino)-propylamino]-1H-quinolin-4-one] | 11 |
| Oc1cc(NCCCOCc2ccc(Cl)c(Cl)c2)nc2ccccc12 [2-[3-(3,4-Dichloro-benzyloxy)-propylamino]-1H-quinolin-4-one] | 50 |
